{"source": "patent US20250375410A1", "about": "“COMPOUND FOR PREVENTING OR TREATING NONALCOHOLIC FATTY LIVER DISEASE AND COMPOSITION THEREOF” (SUNWAY BIOTECH CO., LTD., priority 2024, published 2025)", "type_in_all_cases": "in vivo, C57BL/6J mice", "key": {"[1]": {"tested_on": "gut microbiota of nonalcoholic fatty liver mice", "assay": "Analysis of gut microbiota (full-length 16S sequencing) in nonalcoholic fatty liver mice", "settings": "compared with the HFD group; L008, H008 and Msol groups", "experimental": "(§1) Embodiment 4 uses a high-fat feed to induce a nonalcoholic fatty liver animal model. The animal experiment lasted for 22 weeks. Animal test feed was prepared according to the formula of Research Diets (New Brunswick, NJ, USA) for D12450B and D12492. The grouping is as follows: • i. ND group: Normal animal group. • ii. HFD group: Control group, nonalcoholic fatty liver mice induced by high-fat feed. • iii. L008 group: Nonalcoholic fatty liver mice induced by high-fat feed and gavaged daily with red yeast rice powder, equivalent to 0.5 g of the red yeast rice of the present invention consumed daily by a 60 kg adult, containing 1.5 mg monascinol (a compound having the structure of Formula (I)). • iv. […]\n(1) Extraction of Genomic DNA and PCR Amplification and Purification Total genomic DNA was extracted from samples (QIAamp PowerFecal DNA, Qiagen). DNA concentration was determined using a Qubit 4.0 fluorometer (Thermo Scientific) and adjusted to 1 ng/μL. […] PCR reactions were performed using KAPA HiFi HotStart ReadyMix (Roche): 95° C., 3 minutes; 20-27 cycles (sample-dependent): 95° C., 30 seconds, 57° C., 30 seconds, 72° C., 60 seconds; 72° C. for 5 minutes, and final storage at 4° C. PCR products were monitored on 1% agarose gel. […]"}, "[2]": {"tested_on": "nonalcoholic fatty liver mice induced by high-fat feed", "assay": "Serum liver function indices AST and ALT in high-fat feed induced nonalcoholic fatty liver mice", "experimental": "(§2) 1. Preparation of the Composition of the Present invention • (1) L008 and H008 groups: The composition is the red yeast rice of the present invention obtained by fermenting rice with the Monascus pilosus of the present invention as described in Embodiment 2. The daily dosage for adults in the L008 and H008 groups is 0.5 g/day and 2 g/day, containing 1.5 mg/day and 6 mg/day of monascinol (a compound having the structure of Formula (I)), respectively. • (2) Msol group: Monascinol (a compound having the structure of Formula (I)), with a daily dosage of 6 mg/day for adults.\n(§3) The experiment used 7-week-old male C57BL/6J strain mice purchased from the National Laboratory Animal Center. The initial body weight was about 23 g, with 12 mice per group. They were housed at 60% relative humidity, room temperature 25±1° C., with a 12-hour light cycle (8:00-20:00). The experiment lasted for 22 weeks, during which food and water were provided ad libitum. Body weight, food intake, and water consumption were measured weekly.\n(§4) The feeding dosage calculation was based on the experiment initial estimation method published by the U.S. Food and Drug Administration in 2005 (Estimating the maximum safe starting dose in initial clinical trials for therapeutics in adult healthy volunteers). Using a 60 kg adult as the standard, when conducting trials on higher experimental animals, the dosage conversion principle is to use 12.3 times the recommended daily intake per kilogram of human body weight (mg/kg bw/day) as the recommended daily intake per kilogram of mouse body weight. The calculation formula is as follows: […]\nEmbodiment 4 uses a high-fat feed to induce a nonalcoholic fatty liver animal model. The animal experiment lasted for 22 weeks. […]\nA biochemical auto-analyzer (Model Beckman-700, purchased from Fullerton, CA, USA) was used for detection. The items detected were: TC (Total Cholesterol), TG (Triglyceride), AST (Aspartate Aminotransferase) and ALT (Alanine Aminotransferase) activities."}, "[3]": {"tested_on": "nonalcoholic fatty liver mice induced by high-fat feed", "assay": "Liver weight and liver/body weight ratio in high-fat feed induced nonalcoholic fatty liver mice", "experimental": "as §2, §3, §4\nas §1, with “iv. H008 group: Nonalcoholic fatty liver mice induced by high-fat feed and gavaged daily with red yeast rice powder, equivalent to 2 g of the red yeast rice of the present invention consumed daily by a 60 kg adult, containing 6 mg monascinol (a compound having the structure of Formula (I)). • v.” for “iv.”"}, "[4]": {"tested_on": "nonalcoholic fatty liver mice induced by high-fat feed", "assay": "Liver lipid extraction and measurement (TG, TC) in high-fat feed induced nonalcoholic fatty liver mice", "experimental": "as §2, §3, §4\nEmbodiment 4 uses a high-fat feed to induce a nonalcoholic fatty liver animal model. The animal experiment lasted for 22 weeks. Animal test feed was prepared according to the formula of Research Diets (New Brunswick, NJ, USA) for D12450B and D12492. The grouping is as follows: • i. ND group: Normal animal group. • ii. HFD group: Control group, nonalcoholic fatty liver mice induced by high-fat feed. • iii. […]"}, "[5]": {"tested_on": "nonalcoholic fatty liver mice induced by high-fat feed", "assay": "Liver histopathology (H&E staining) assessment in high-fat feed induced nonalcoholic fatty liver mice", "experimental": "as §2, §3, §4\nEmbodiment 4 uses a high-fat feed to induce a nonalcoholic fatty liver animal model. The animal experiment lasted for 22 weeks. Animal test feed was prepared according to the formula of Research Diets (New Brunswick, NJ, USA) for D12450B and D12492. The grouping is as follows: • i. ND group: Normal animal group. • ii. HFD group: Control group, nonalcoholic fatty liver mice induced by high-fat feed. • iii. L008 group: Nonalcoholic fatty liver mice induced by high-fat feed and gavaged daily with red yeast rice powder, equivalent to 0.5 g of the red yeast rice of the present invention consumed daily by a 60 kg adult, containing 1.5 mg monascinol (a compound having the structure of Formula (I)). • iv. H008 group: Nonalcoholic fatty liver mice induced by high-fat feed and gavaged daily with red yeast rice powder, equivalent to 2 g of the red yeast rice of the present invention consumed daily by a 60 kg adult, containing 6 mg monascinol (a compound having the structure of Formula (I)). • v. Msol group: Nonalcoholic fatty liver mice induced by high-fat feed and gavaged daily with monascinol (a compound having the structure of Formula (I)) powder, equivalent to 6 mg of monascinol (a compound having the structure of Formula (I)) powder consumed daily by a 60 kg adult.\nIn the 22nd week of the experiment, food was withheld for 12-14 hours before blood collection. […] The obtained blood samples were centrifuged at 4° C., 3,000×g for 15 minutes. The upper layer of blood was aliquoted into eppendorf tubes and stored at −80° C. The liver was weighed, and the second largest lobe was preserved in 10% pathological formalin. The remaining liver was washed with 0.9% physiological saline, and along with the kidneys, placed in zipper bags and stored at −80° C.\nThe liver was fixed in 10% formalin, dehydrated, and embedded in paraffin to make tissue sections. […]"}, "[6]": {"settings": "serum, Msol group: monascinol 0.0012 g/kg bw/day by gavage, high-fat diet, 22 weeks, mean ± SD, n = 8"}, "[7]": {"settings": "Msol group: monascinol 0.0012 g/kg bw/day by gavage, high-fat diet, 22 weeks, mean ± SD, n = 8"}, "[8]": {"settings": "lesion severity grade (0 to 4), Msol group: monascinol 0.0012 g/kg bw/day, high-fat diet, 22 weeks, mean ± SD, n = 8"}}, "note": "Marks after values point to notes of the source that are not given here.", "data": [{"substance": "Monascinol [Msol]", "values": [{"measurement": "Abundance of Blautia and Intestinimonas in the intestine, in words (FIG. 9)", "setting": "[1]", "value": "increase the microbial populations of Blautia and Intestinimonas"}, {"measurement": "ALT Activity", "setting": "[2]; [6]", "value": "25.3 ± 3.4 ^a U/L"}, {"measurement": "AST Activity", "setting": "[2]; [6]", "value": "60.6 ± 3.7 ^a U/L"}, {"measurement": "Effect on serum AST and ALT activities, in words", "setting": "[2]; versus HFD group, various doses (L008 and H008 groups) and Monascinol", "value": "significantly reduced AST and ALT activities"}, {"measurement": "Liver Weight", "setting": "[3]; [7]", "value": "1.01 ± 0.06 ^a g"}, {"measurement": "Liver/Body Weight", "setting": "[3]; [7]", "value": "2.85 ± 0.24 ^a %"}, {"measurement": "Effect on liver weight, in words", "setting": "[3]; versus HFD group, p<0.05, various doses (L008 and H008 groups) and Msol", "value": "significantly reducing liver weight"}, {"measurement": "Effect on liver/body weight ratio, in words", "setting": "[3]; versus HFD group, various doses (L008 and H008 groups) and Msol", "value": "improving the liver/body weight ratio"}, {"measurement": "Liver TC", "setting": "[4]; [7]", "value": "1.02 ± 0.32 ^ab mg/g"}, {"measurement": "Liver TG", "setting": "[4]; [7]", "value": "7.25 ± 0.71 ^a mg/g"}, {"measurement": "Effect on TC and TG in the liver, in words", "setting": "[4]; versus HFD group, p<0.05", "value": "effectively reduced the accumulation of TC and TG in the liver"}, {"measurement": "Fatty change with macro-vesicles, multifocal", "setting": "[5]; [8]", "value": "0.3 ± 0.7 ^a"}, {"measurement": "Fatty change with micro-vesicles, multifocal", "setting": "[5]; [8]", "value": "0.1 ± 0.4 ^a"}, {"measurement": "Fatty change, general", "setting": "[5]; [8]", "value": "0.3 ± 0.7 ^a"}, {"measurement": "Inflammation, granulomatous, multifocal", "setting": "[5]; lesion severity grade (0 to 4), Msol group: monascinol 0.0012 g/kg bw/day, high-fat diet, 22 weeks, n = 8", "value": "0 ^a"}, {"measurement": "Effect on accumulation of liver lipid droplets / fatty infiltration, in words (FIG. 7, Table 6)", "setting": "[5]; versus HFD group, p<0.05", "value": "significantly improved the accumulation of liver lipid droplets and fatty infiltration"}]}]}
